Laboratory results published in PubChem BioAssay (NCI).
Where “and” joins values, the source holds several entries; their conditions need not be identical. Identical values can stand only once.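 Where inhibition never reached the appropriate level, the endpoint shown equals the highest concentration tested. Otherwise, values were interpolated linearly from a five-concentration, 48-hour dose response in 96-well plates. At the GI50, growth is halved. Definition used: TGI = concentration required for complete inhibition of growth.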

Legend:
Test in all cases: DTP human tumour cell line panel, 48 h
[1] = tested on: ACHN renal
[2] = tested on: HCT-15 colon
[3] = tested on: HL-60(TB) leukemia
[4] = tested on: HOP-62 NSCLC
[5] = tested on: HOP-92 NSCLC
[6] = tested on: HS 578T breast
[7] = tested on: K-562 leukemia
[8] = tested on: NCI/ADR-RES ovarian
[9] = tested on: OVCAR-8 ovarian
[10] = tested on: RPMI-8226 leukemia

In the case of `O=C1/C(=C/c2ccccc2O)N=C(c2ccccc2)N1c1cc(C(F)(F)F)ccc1Cl`, the GI50 [1] is reported as 18.6 µM, the TGI [1] is reported as 51.4 µM and the GI50 [2] is reported as 64.7 µM. The TGI [2] was greater than 100 µM, the GI50 [3] was greater than 100 µM and the TGI [3] was greater than 100 µM. For the same molecule, the GI50 [4] was 15.9 µM, the TGI [4] was 30.4 µM and the GI50 [5] was 19.1 µM. The TGI [5] was 53 µM, the GI50 [6] was 22.8 µM and the TGI [6] was 60.3 µM. It also gave a GI50 [7] greater than 100 µM, a TGI [7] greater than 100 µM and a GI50 [8] of 46.6 µM. It also gave a TGI [8] greater than 100 µM, a GI50 [9] of 46.3 µM and a TGI [9] greater than 100 µM. The GI50 [10] was greater than 100 µM and the TGI [10] was greater than 100 µM.

Molecule `CN(C)c1nc(N)c(C#N)c(C#N)c1C#N` has a TGI [1] greater than 10 µM, a TGI [2] greater than 10 µM and a TGI [3] greater than 6.07 µM. For the same molecule, the TGI [4] was greater than 10 µM, the TGI [5] was greater than 10 µM and the TGI [6] was greater than 10 µM. The TGI [7] was greater than 7.15 µM, the TGI [8] was greater than 10 µM and the TGI [9] was greater than 10 µM. It also gave a TGI [10] greater than 10 µM.

With `CC1(C)[C@H](O)[C@H](F)C[C@@]2(C)Oc3ccc(C(=O)Nc4ccc5c(c4)NC(=O)C54CCN(CCCCC#N)CC4)cc3C[C@H]12` the GI50 [1] was 0.961 µM and 5.29 µM, the TGI [1] was 23.2 µM and the GI50 [2] was 5.43 µM and 1.59 µM. For the same molecule, the TGI [2] was 19.1 µM, the GI50 [3] was 0.0583 µM and the TGI [3] was 6.04 µM. The GI50 [4] was 1.28 µM and 1.13 µM, the TGI [4] was 5.61 µM and the GI50 [5] was 0.00986 µM. The TGI [5] was 3.28 µM and 8.09 µM, the GI50 [6] was 0.00265 µM and the TGI [6] was 0.035 µM and 0.0352 µM. The GI50 [7] was 0.0573 µM and 0.012 µM, the TGI [7] was 4.81 µM and 1.48 µM and the GI50 [8] was 42.9 µM. It also gave a TGI [8] greater than 100 µM, a GI50 [9] of 5.36 µM and a TGI [9] of 45.1 µM. It also gave a GI50 [10] of 0.00262 µM.

`Nc1nc(-c2ccc(Cl)cc2)nc2c1sc(=S)n2-c1ccccc1` showed a GI50 [1] of 1.83 µM, a TGI [1] of 3.82 µM and a GI50 [2] of 4.92 µM. For the same molecule, the TGI [2] was greater than 100 µM, the GI50 [3] was greater than 100 µM and the TGI [3] was greater than 100 µM. For the same molecule, the GI50 [4] was 3.4 µM, the TGI [4] was 11.7 µM and the GI50 [5] was 2.37 µM. It also gave a TGI [5] of 6.25 µM, a GI50 [6] of 3.31 µM and a TGI [6] of 9.39 µM. For the same molecule, the GI50 [7] was 4.75 µM, the TGI [7] was greater than 100 µM and the GI50 [8] was 3.7 µM. The TGI [8] was 19.8 µM, the GI50 [9] was 5.16 µM and the TGI [9] was greater than 100 µM. For the same molecule, the GI50 [10] was 5.54 µM and the TGI [10] was greater than 100 µM.

For `Cc1ccc(Cl)cc1-n1c(C)nc2c(cnn2-c2ccnc3c(C(F)(F)F)cccc23)c1=O`, the GI50 [1] was greater than 100 µM, the TGI [1] was greater than 100 µM and the GI50 [2] was greater than 100 µM. For the same molecule, the TGI [2] was greater than 100 µM, the GI50 [3] was greater than 100 µM and the TGI [3] was greater than 100 µM. The GI50 [4] was greater than 100 µM, the TGI [4] was greater than 100 µM and the GI50 [5] was greater than 100 µM. For the same molecule, the TGI [5] was greater than 100 µM, the GI50 [6] was greater than 100 µM and the TGI [6] was greater than 100 µM. It also gave a GI50 [7] greater than 100 µM, a TGI [7] greater than 100 µM and a GI50 [8] greater than 100 µM. It also gave a TGI [8] greater than 100 µM, a GI50 [9] greater than 100 µM and a TGI [9] greater than 100 µM. For the same molecule, the GI50 [10] was greater than 100 µM and the TGI [10] was greater than 100 µM.

For `COc1cc(-c2ncn(/C=C\c3nnco3)n2)cc(C(F)(F)F)c1`, the GI50 [1] was 0.318 µM, the TGI [1] was greater than 100 µM and the GI50 [2] was 0.282 µM. For the same molecule, the TGI [2] was greater than 100 µM, the GI50 [3] was 0.0809 µM and the TGI [3] was 13.1 µM. The GI50 [4] was 0.403 µM, the TGI [4] was greater than 47 µM and the GI50 [5] was 0.952 µM. For the same molecule, the TGI [5] was 46.5 µM, the GI50 [6] was 0.488 µM and the TGI [6] was greater than 100 µM. For the same molecule, the GI50 [7] was 0.122 µM, the TGI [7] was greater than 100 µM and the GI50 [8] was 0.2 µM. It also gave a TGI [8] greater than 100 µM, a GI50 [9] of 0.0813 µM and a TGI [9] greater than 47 µM. The GI50 [10] was 0.102 µM and the TGI [10] was greater than 89.1 µM.

`C=CCN(CC=C)C(=O)[C@H](CC)[C@@H]1CC[C@@H](C)[C@@H]([C@H](C)[C@@H](O)[C@@H](C)C(=O)[C@H](CC)C2O[C@]3(C=C[C@@H](O)[C@]4(CC[C@@](C)([C@H]5CC[C@](O)(CC)[C@H](C)O5)O4)O3)[C@H](C)C[C@@H]2C)O1` (some centres undefined) was tested, and the GI50 [1] was 2.9 µM, the TGI [1] was 11 µM and the GI50 [2] was 2.05 µM. For the same molecule, the TGI [2] was 4.81 µM, the GI50 [3] was 2.09 µM and the TGI [3] was 4.76 µM. The GI50 [4] was 3.22 µM, the TGI [4] was 12.2 µM and the GI50 [5] was 1.39 µM. It also gave a TGI [5] of 4.31 µM, a GI50 [6] of 2.22 µM and a TGI [6] of 6.27 µM. It also gave a GI50 [7] of 2.64 µM, a TGI [7] of 11 µM and a GI50 [8] of 2.7 µM. The TGI [8] was 9.82 µM, the GI50 [9] was 3.48 µM and the TGI [9] was 76.4 µM. For the same molecule, the GI50 [10] was 1.62 µM and the TGI [10] was 5.43 µM.

Molecule `N#CC1C(N)=NNC12Nc1ccccc1S2` (centres undefined) has a GI50 [1] of 20.1 µM, a TGI [1] of 53.3 µM and a GI50 [2] of 15.5 µM. For the same molecule, the TGI [2] was 64.2 µM, the GI50 [3] was 42.5 µM and the TGI [3] was greater than 100 µM. It also gave a GI50 [4] of 30.3 µM, a TGI [4] greater than 100 µM and a GI50 [5] of 34.7 µM. For the same molecule, the TGI [5] was greater than 100 µM, the GI50 [6] was 17.4 µM and the TGI [6] was 71.7 µM. It also gave a GI50 [7] of 14.1 µM, a TGI [7] of 34.7 µM and a GI50 [8] of 17.7 µM. It also gave a TGI [8] of 54.1 µM, a GI50 [9] of 13 µM and a TGI [9] of 61.1 µM. It also gave a GI50 [10] of 26.3 µM and a TGI [10] greater than 100 µM.

With `COCCOCCOCCOCCOC(=O)OC[n+]1ccc(NC(=NCCCCCCOc2ccc(Cl)cc2)NC#N)cc1` the GI50 [1] was 10.8 µM, the TGI [1] was 23.4 µM and the GI50 [2] was less than 0.01 µM. It also gave a TGI [2] of 17.9 µM, a GI50 [3] of 3.25 µM and a TGI [3] of 10.7 µM. The GI50 [4] was 9.58 µM, the TGI [4] was 24.1 µM and the GI50 [5] was 1.7 µM. The TGI [5] was 16.3 µM, the GI50 [6] was 1.11 µM and the TGI [6] was 43.6 µM. The GI50 [7] was 4.58 µM, the TGI [7] was 20.5 µM and the GI50 [8] was less than 0.0395 µM. The TGI [8] was 20.2 µM, the GI50 [9] was less than 0.01 µM and the TGI [9] was 20.8 µM. It also gave a GI50 [10] of less than 0.01 µM and a TGI [10] of 3.13 µM.
